According to paper PMC12597941 (Frontiers in Pharmacology, 2025):

Assays:
[1] = Untargeted LC-HRMS metabolite profiling after oral PAC administration
Experimental: Animals to be sacrificed at 6 h (only test item-treated animals) were placed in metabolic cages (650-0100, Nalgene) for the collection of urine. Urine was stabilized with a final concentration of 4 mM NaN3 and stored at 4 °C. At 1 h and 6 h after the administration of the vehicle (1 h only) or test items (1 and 6 h), animals from the respective treatment groups were euthanized by CO2 inhalation. Blood was obtained by cardiac puncture and drawn in lithium-heparin-containing vials for the preparation of plasma by centrifugation (4,000 rpm, 4 °C, 10 min). Plasma was stored at −80 °C until bioanalytical analysis. Samples of the mixed intestinal content were obtained by scraping the small intestine, cecum, and large intestine into a 5-mL tube. Tubes were covered with gaseous N2 and stored at −80 °C.
The supernatant was evaporated to dryness and resuspended in 150 µL 1% FA in H2O/ACN (9/1, v/v) for analysis.
Rat intestinal content was first freeze-dried and finely crushed. […] Ethyl acetate extracts were evaporated to dryness and then resuspended in 300 µL 1% FA in H2O/ACN (9/1, v/v) for untargeted LC-HRMS analysis. Internal standards (listed in Supplementary Table S1) were spiked to both the sample types to ensure the performance of the measurements and monitor matrix effect.
Untargeted metabolite profiling was performed using a Vanquish UHPLC coupled with an Orbitrap Fusion Tribrid mass spectrometer (Thermo Fisher Scientific, Waltham, MA, United States of America) fitted with a HESI source. Chromatographic separation was performed on Waters Acquity HSS T3 1.8 µm Column (2.1 mm × 150 mm) (Waters Technologies, United States of America). The injection volume was 5 µL. The flow rate was set at 0.45 mL/min, and the column temperature was 40 °C. […] The gradient was as follows: 0% B from 0 to 2 min, 0%–10% B from 2 to 10 min, 10%–80% B from 10 to 25 min, 80%–100% B from 25 to 26 min, 100% B from 26 to 31 min, 100%–0% B from 31 to 32 min, and 3 min equilibration at 0% B.
Compound discoverer 3.1 (CD, Thermo Fisher Scientific, Waltham, MA, United States of America) was used for untargeted and novel feature detection. Raw files were processed with CD in the following steps: first, spectra were selected from raw data followed by retention time (RT) alignment with RT tolerance of 2 min and 5 ppm mass precision. Then, unknown compounds were detected and grouped with RT tolerance of 0.5 min and 5 ppm mass deviation. Missing values were filled. The composition was predicted based on the exact mass. The compounds were annotated with different types of databases. mzCloud was used to annotate compounds on the MS/MS level with a mass tolerance of 10 ppm. ChemSpider was used to annotate features based on the exact mass with a mass tolerance of 20 ppm.
Relevant features were identified by performing differential analysis between the vehicle and PAC treatment groups in Compound Discoverer software. […] Compound annotations of these features were checked for plausibility, and, if necessary, structural elucidation was manually continued.

[2] = Plasma levels of terpene lactones, flavonol aglycones and PAC metabolites in T-maze mice; type: in vivo
Experimental: Targeted LC-MS/MS was used to quantify known and newly identified PAC metabolites (MRM transitions based on MS2 spectra of the untargeted analysis), as well as main ginkgo terpene lactones and flavonol aglycones in one single run in mouse plasma obtained from the pharmacological experiments (Supplementary Table S1).
The injection volume was 10 µL. […] Data processing was carried out with MassHunter Quantitative Analysis 10.1 software.
Plasma levels of terpene lactones (ginkgolide A, ginkgolide B, and bilobalide) and main ginkgo flavonol aglycones (quercetin, kaempferol, and isorhamnetin) were quantified in samples from animals used in the T-maze model. The detailed protocols for the analysis methods are included in the Supplementary Material.
Quantification of Acetylcholine in plasma […]
as described in the manufacturer’s instructions. […]
for 30 min at room temperature. […]
subtracted and of ACh concentration was calculated.
Flavonol aglycone quantification in plasma […]
methanol. […]
Data processing was conducted with mass hunter quantitative analysis 10.1.
Terpene lactone quantification in plasma […]
An Agilent 7890B GC (Agilent, Santa Clara, CA) coupled to an Agilent 7000D triple-quadrupole MS (Agilent, Santa Clara, CA) was used to analyze all samples. […] Target analytes were analyzed in negative ion chemical ionization with multiple reaction monitoring (MRM) mode using […]

[3] = test system: scopolamine-induced working memory impairment; experiment: T-maze spontaneous alternation, scopolamine-induced memory impairment; type: in vivo; settings: mice, p.o. 1 h before T-maze; donepezil 0.3 mg/kg
Experimental: To impair short-term memory, mice were injected intraperitoneally (i.p.) with 1 mg/kg scopolamine (S1875, Sigma-Aldrich) or 0.9% NaCl (PZN01399062, Fresenius) 20 min prior to the experimental session. […] Switching from the right to the left arm of the T-maze or vice versa was calculated as correct alternations (%). The method is based on the study by [Deacon (2006)]. At 15 min after the start of the T-maze observation and once the 20 arm entry trials were finalized, animals were euthanized with CO2, and blood was collected by cardiac puncture for EDTA-plasma (Figure 1).
Data were analyzed using GraphPad Prism 10.1.2 (GraphPad Software, La Jolla, CA). Experimental groups were compared using one-way analysis of variance (ANOVA) or two-way ANOVA, followed by Dunnett’s post-test. Vehicle and each active treatment group were compared to the vehicle–scopolamine group (that received vehicle p.o., followed by i.p. injection of scopolamine). For calculation of dose–response curves, reversal of the scopolamine-induced amnesia was calculated. […] For ROS data, baseline ROS levels without treatment were set as 0% inhibition. […] Emax, and relative ID50 values for the T-maze in vivo studies were taken directly from the calculated dose–response curve data provided by Graph Pad Prism. […]

[4] = after oral PACs, c = detected in mice plasma

Row | Compound | Compartment in which the metabolite was detected [1, 4] | Time points at which the metabolite was detected ([1]; after oral PACs) [h] | other results
1 | Gallic acid-O-sulphate [M02] | Plasmac |  | time of peak plasma level ([2]; mouse plasma, after PAC fraction 100 mg/kg p.o., peak area): 1 h
2 | COc1cc(-c2oc3cc(O)cc(O)c3c(=O)c2O[C@@H]2O[C@H](C(=O)O)[C@@H](O)[C@H](O)[C@H]2O)cc(O)c1O [M19, 5'-O-methyl Myricetin 3-O-glucuronide] | Intestine | 1 | 
3 | Methylgallic acid-O-sulphate [M06] | Urine |  | 
4 | Oc1cc(O)c2c(c1)O[C@H](c1cc(O)c(O)c(O)c1)[C@H](O)C2 [M10, Epigallocatechin] | Intestine |  | 
5 | Oc1cc(O)c2c(c1)O[C@H](c1cc(O)c(O)c(O)c1)[C@@H](O)C2 [M04, Gallocatechin] | Intestine |  | 
6 | O=C(O)c1cc(O)c(O)c(O)c1 [M01, Gallic acid] |  |  | Time points at which the metabolite was detected ([1]; rat, in vivo, po): 6 h; plasma level versus PAC dose ([2]; plasma of PAC-treated mice, approximately 1 h 15 min after administration): dose-dependent increase
7 | COc1cc2c(cc1OC)C(=O)C(CC1CCN(Cc3ccccc3)CC1)C2 (stereo not shown) [donepezil] |  |  | effect on scopolamine-induced impairment of correct alternations [3]: largely prevented
8 | O=C1CCC(Cc2cc(O)cc(O)c2)O1 (stereo not shown) [M12, 5-(3‘,5‘-Dihydroxyphenyl)-γ-Valerolactone] | Intestine | 6 | 
9 | COc1cc(C(O)C(O)/C(=C\C(=O)O)c2ccccc2)cc(O)c1O (stereo not shown) [M17, (2Z)-5-(3,4-dihydroxy-5-methoxyphenyl)-4,5-dihydroxy-3-phenylpent-2-enoic acid] | Intestine | 6 | 
10 | Gallic acid glucuronide [M03] | Urine |  | 
11 | Oc1cc(O)c2c(c1)OC(c1ccc(O)c(O)c1)C(O)C2 (stereo not shown) [M11, Catechin] | Intestine | 6 | 
12 | COc1cc(C=O)ccc1O[C@@H]1O[C@H](C(=O)O)[C@@H](O)[C@H](O)[C@H]1O [M07, Vanillin glucuronide] | Urine |  | 
13 | Oc1cc(O)c(CC(O)Cc2cc(O)c(O)c(O)c2)c(O)c1 (stereo not shown) [M09, 1-(3‘,4‘,5‘-trihydroxyphenyl)-3-(2‘‘,4‘‘,6‘‘-trihydroxyphenyl)propan-2-ol] | Intestine | 6 | 
14 | O=C(O)[C@H]1O[C@@H](Oc2c(-c3cc(O)c(O)c(O)c3)oc3cc(O)cc(O)c3c2=O)[C@H](O)[C@@H](O)[C@@H]1O [M18, Myricetin 3-O-glucuronide] | Intestine | 1 | 
15 | O=C1CCC(Cc2cc(O)c(O)c(O)c2)O1 (stereo not shown) [M08, 5-(3',4',5'-trihydroxyphenyl)-gamma-Valerolactone] | Intestine | 6 | 
16 | O=c1c(O)c(-c2cc(O)c(O)c(O)c2)oc2cc(O)cc(O)c12 [M20, Myricetin] |  |  | Compartment in which the metabolite was detected ([1]; rat, in vivo, po): Intestine; Time points at which the metabolite was detected ([1]; rat, in vivo, po): 1h, 6h
17 | O=C1CCC(Cc2ccc(O)c(O)c2)O1 (stereo not shown) [M13, 5-(3‘,4‘-Dihydroxyphenyl)-γ-Valerolactone] | Intestine | 6 | 
18 | Oc1cc(O)c(CC(O)Cc2ccc(O)c(O)c2)c(O)c1 (stereo not shown) [M14, 1-(3′,4′-dihydroxyphenyl)-3-(2″,4″,6″-trihydroxyphenyl)propan-2-ol] | Intestine | 6 | 
19 | O=C(O[C@@H]1Cc2c(O)cc(O)cc2O[C@@H]1c1cc(O)c(O)c(O)c1)c1cc(O)c(O)c(O)c1 [M15, Epigallocatechin gallate] | Intestine | 1 | 
20 | COc1cc(O)cc2oc(-c3cc(O)c(O)c(O)c3)c(O)c(=O)c12 [M21, 5-O-Methylmyricetin] | Urine | 6 | 
